Measurements reported in publication PMC3651789 (Current biology : CB, 2013).

Assays:
AEX-2/GPCR = target: T1, AEX-2/GPCR (Caenorhabditis elegans, UniProt G5ECD9); assay: In vitro cellular assay for AEX-2/GPCR activation by NLP-40-derived peptides; type: cell-based, C. elegans; settings: for activation of AEX-2/GPCR (in words): CHO/mtAEQ/Gα16 cells transfected with AEX-2/GPCR, aequorin luminescence, all concentrations tested
T1 sequence (G5ECD9 1-321): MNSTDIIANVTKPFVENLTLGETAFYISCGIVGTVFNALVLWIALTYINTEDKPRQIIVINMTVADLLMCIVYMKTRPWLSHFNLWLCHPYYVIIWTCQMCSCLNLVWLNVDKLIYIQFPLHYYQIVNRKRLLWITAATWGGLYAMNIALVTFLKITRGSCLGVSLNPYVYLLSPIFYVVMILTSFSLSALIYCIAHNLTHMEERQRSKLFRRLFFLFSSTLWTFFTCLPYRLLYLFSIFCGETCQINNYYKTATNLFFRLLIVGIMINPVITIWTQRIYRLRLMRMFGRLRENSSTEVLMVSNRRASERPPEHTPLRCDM

[1] = test system: enteric muscle contractions (Exp); assay: Enteric muscle contraction; type: in vivo, C. elegans; settings: peptide injection; data not shown

Row | Substance | activation of AEX-2/GPCR (in words) (AEX-2/GPCR) | relative potency at AEX-2/GPCR (in words) (AEX-2/GPCR; CHO/mtAEQ/Gα16 cells, NLP-40 P3-1 compared to NLP-40 P3-2) | induction of enteric muscle contractions (Exp) (in words) [1]
1 | VAWQPM [NLP-40 P3-2] | able to activate AEX-2/GPCR | – | –
2 | APSAPAGLEEKL [NLP-40 P1] | failed to activate AEX-2/GPCR at all concentrations tested | – | –
3 | MVAWQPM [NLP-40 P3-1] | able to activate AEX-2/GPCR | more potent ligand for AEX-2/GPCR | failed to induce robust enteric muscle contractions (Exp)
